# What was measured:
# [1] = molecular target: T1, human PPARgamma-ligand binding domain (LBD) (Homo sapiens, UniProt P37231); assay: AlphaScreen: recruiting of biotinylated LXXLL peptide of cofactor CBP to GST-PPARgamma-LBD; type: biochemical
# T1 construct: codes for the amino acids 205-505 of the human PPARgamma2 transcription factor; made in house; host or cells: E. coli BL21(DE3), vector pGEX-4T-1
# T1 sequence (P37231 205-505): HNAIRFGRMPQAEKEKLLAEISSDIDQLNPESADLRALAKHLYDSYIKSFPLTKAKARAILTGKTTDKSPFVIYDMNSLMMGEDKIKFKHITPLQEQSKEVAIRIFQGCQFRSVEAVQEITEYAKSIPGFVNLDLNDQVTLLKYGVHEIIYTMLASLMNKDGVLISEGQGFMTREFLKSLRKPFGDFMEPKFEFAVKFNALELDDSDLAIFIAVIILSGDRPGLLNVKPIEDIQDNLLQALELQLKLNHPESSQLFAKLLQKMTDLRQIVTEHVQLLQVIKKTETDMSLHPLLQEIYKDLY
# Protocol: Protein containing the human PPARgamma-ligand binding domain (LBD) is prepared as a GST fusion protein in E.coli and purified by affinity chromatography. […] The fusion protein is expressed in the E.coli strain BL21(DE3) recommended for pGEX vectors after induction with 0.2 mM IPTG for 4 hours at 25° C. The bacteria are pelleted after the induction and frozen in batches in PBS, pH 7.4. After opening up in a French Press, the dissolved GST-PPARgamma-LBD-fusion protein is purified using a GSTrap column (Pharmacia). Elution is carried out by the addition of 20 mM reduced glutathione.
# The GST-PPARgamma-LBD-protein fractions are desalinated using a HiTrap desalting column (Pharmacia) and the protein concentration is determined using a standard assay.
# The assay buffer consists of 25 mM Hepes pH7.4, 100 mM NaCl,1 mM DTT, 0.1% Tween-20, 0.1% BSA. […] The final DMSO concentration in the assay is 1% (v/v). A 1% DMSO solution is used as the background control (NSB). The measurement is done using a Packard fusion measuring device.
# [2] = molecular target: T2, ligand binding domain of the human PPARgamma2 transcription factor (Gal4 DNA binding domain fusion) (Homo sapiens, UniProt P37231); assay: Luciferase activity in stably transformed PPARgamma reporter cell line (CHO-K1 clone 11); type: cell-based; conditions: 24 hours
# T2 construct: codes for amino acids 205-505 of the human PPARgamma2 transcription factor; expressed in transfected cells
# T2 sequence (P37231 205-505): T1 sequence (P37231 205-505)
# Protocol: The resulting plasmid pFA-CMV/hPPARgamma2-LBD codes N-terminally of the PPARgamma-LBD in the same reading frame for a Gal4 DNA binding domain. In addition the plasmid codes for a neomycin resistance.
# The cell line CHO-K1 (ATCC CCL-61) is cotransfected with the plasmids pFA-CMV/hPPARgamma2-LBD and pFR-Luc (Stratagene). pFR-Luc codes for the luciferase gene under the control of a five-times repeated yeast Gal4 binding site. The transfection is carried out with lipofectamine2000 in accordance with the manufacturer's instructions.
# After six days' cultivation the cells are passaged and kept in culture for another 10 days. The resulting neomycin-resistant colonies are picked out under the microscope and transferred into 96 well-dishes and cultured.
# The test substances are brought to 100 times the desired concentration with a suitable solvent, e.g. DMSO, and diluted 1:100 with the medium placed in the cell culture plate. The solvent used, e.g. DMSO, is used as the background control in the same concentration.
# Luminescence is measured after a five minute wait using a Packard TopCount NXT. The luciferase activity is obtained by integrating the relative luciferase units (RLU) of the first ten seconds after the start of measurement.
# [3] = system: Adipose Protein 2 (aP2) expression; assay: Stimulation of aP2 expression in 3T3-L1 cells (real time PCR); type: cell-based, mouse; conditions: 10 μmol/L
# Text: 3T3-L1 mouse preadipocytes are cultivated in DMEM (Dulbecco's modified eagle medium) with 10% foetal calf serum (FBS). PC12W cells are cultivated in DMEM with 5% FBS and 10% equine serum. In both cases the media contain 1% penicillin/streptomycin.
# The differentiation of adipocytes is induced 2-3 days after cell confluence by adding a differentiating solution. This contains • 1 μmol/L of dexamethasone, • 0.5 mmol/L of 3-isobutyl-1-methylxanthine, • 1.67 μmol/L of insulin, and • 10% FBS.
# Then the cells are stimulated for another 48 hours before finally being analysed (day 4).
# RNA isolation, reverse transcription and quantification of gene expression are carried out using an ABI 7000 sequence detection system-for real time PCR (described in Janke et al, Diabetes 51:1699-707, 2002). The endogenous control used for the real time PCR consists of the household genes 18S rRNA and hypoxanthine guanine phosphoribosyl transferase (hprt).
compound,measurement,setting,value
CCCc1nc2c(C)cc(-c3nc4ccccc4n3C)cc2n1Cc1ccc(-c2ccccc2C(=O)O)cc1 [telmisartan],AlphaScreen signal (MW),[1]; 1.00E−05 M test substance,847
same,AlphaScreen signal (MW),[1]; 1.00E−06 M test substance,677
same,AlphaScreen signal (MW),[1]; 1.00E−07 M test substance,606
same,AlphaScreen signal (MW),[1]; 3.00E−06 M test substance,720
same,AlphaScreen signal (MW),[1]; 3.00E−07 M test substance,644
same,AlphaScreen signal (MW),[1]; 3.00E−08 M test substance,642
same,AlphaScreen signal (MW),[1]; 5.00E−05 M test substance,1111
same,direct activation of the PPARgamma-LBD / recruiting of the LXXLL peptide,[1]; concentrations of up to 50 μM,does not result in any direct activation
same,luciferase activity (MW),[2]; 1.00E−05 M,61397 RLU
same,luciferase activity (MW),[2]; 1.00E−06 M,2859 RLU
same,luciferase activity (MW),[2]; 3.00E−05 M,58790 RLU
same,luciferase activity (MW),[2]; 3.00E−06 M,24498 RLU
same,luciferase activity (MW),[2]; 3.00E−07 M,760 RLU
same,"stimulation of aP2 expression, factor",[3],3.1±0.3
